Experiment [1] concerns the target Proteasome Macropain subunit (Homo sapiens) (UniProt P49721). The experiment is described as follows: Inhibition of 20s constitutive proteasome beta2 trypsin-like activity in human erythrocytes using Boc-Leu-Arg-Arg-AMC as substrate at 50 uM after 10 mins by fluorescence assay relative to control. Format: cell-based.
For experiment [2] the target is unchanged. Nature of the experiment: Inhibition of 20s immunoproteasome beta2 trypsin-like activity in human spleen using Boc-Leu-Arg-Arg-AMC as substrate at 50 uM after 10 mins by fluorescence assay relative to control.
The target of experiment [3] is T1, Proteasome component C5 (Homo sapiens) (UniProt P20618).
T1 sequence (whole entry): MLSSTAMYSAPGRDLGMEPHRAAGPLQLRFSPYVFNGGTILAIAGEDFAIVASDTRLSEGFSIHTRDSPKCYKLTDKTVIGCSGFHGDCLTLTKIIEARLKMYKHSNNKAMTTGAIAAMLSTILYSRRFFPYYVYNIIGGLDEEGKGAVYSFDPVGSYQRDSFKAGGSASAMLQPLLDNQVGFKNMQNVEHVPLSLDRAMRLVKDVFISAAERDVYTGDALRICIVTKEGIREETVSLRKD
Nature of the experiment: Inhibition of 20s constitutive proteasome beta1 caspase-like activity in human erythrocytes using Z-Leu-Leu-Glu-AMC as substrate at 50 uM after 10 mins by fluorescence assay relative to control. In kind it is cell-based.

The target of experiment [4] is T2, Proteasome Macropain subunit MB1 (Homo sapiens) (UniProt P28074).
T2 sequence (whole entry): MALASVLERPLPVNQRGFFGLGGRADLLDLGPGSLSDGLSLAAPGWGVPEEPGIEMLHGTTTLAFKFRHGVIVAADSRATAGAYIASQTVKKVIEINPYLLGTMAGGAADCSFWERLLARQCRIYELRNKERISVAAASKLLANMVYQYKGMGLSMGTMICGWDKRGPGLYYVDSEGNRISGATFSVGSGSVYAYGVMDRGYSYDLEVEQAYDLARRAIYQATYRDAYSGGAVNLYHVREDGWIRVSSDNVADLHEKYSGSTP
Nature of the experiment: Inhibition of 20s immunoproteasome beta5 chymotrypsin-like activity in human spleen using Suc-Leu-Leu-Val-Tyr-AMC as substrate at 50 uM after 10 mins by fluorescence assay relative to control.

Experiment [5] deals with T2, Proteasome Macropain subunit MB1 (Homo sapiens). The experiment is described as follows: Inhibition of 20s constitutive proteasome beta5 chymotrypsin-like activity in human erythrocytes using Suc-Leu-Leu-Val-Tyr-AMC as substrate at 50 uM after 10 mins by fluorescence assay relative to control. Format: cell-based.
A short description of experiment [6]: Growth inhibition of human MM1R cells after 24 hrs by MTT assay. Format: functional. The settings on record: MM.1R. (In general: Tetrazolium assays rely on reduction of a dye to a coloured formazan, in cell work by metabolically active cells.)
Experiment [7] has as its target T3, Proteasome Macropain subunit MB1 (Homo sapiens, UniProt P28074).
T3 sequence (P28074 whole entry): T2 sequence (whole entry)
Nature of the experiment: Inhibition of 20s constitutive proteasome beta5 chymotrypsin-like activity in human erythrocytes using Suc-Leu-Leu-Val-Tyr-AMC as substrate after 10 mins by fluorescence assay.

In experiment [8] the target is T2, Proteasome Macropain subunit MB1 (Homo sapiens). Nature of the experiment: Reversible inhibition of 20s constitutive proteasome beta5 chymotrypsin-like activity in human erythrocytes using Suc-Leu-Leu-Val-Tyr-AMC as substrate at 50 uM preincubated for 30 mins followed by compound dilution measured after 30 mins by fluorescence assay. In kind it is cell-based.
Experiment [9] shares this target. The experiment is described as follows: Selectivity ratio of inhibitory concentration for 20s constitutive proteasome beta5 chymotrypsin-like activity in human erythrocytes to Ki for 20s immunoproteasome beta5 chymotrypsin-like activity in human spleen. Format: cell-based.

The structures appear in SMILES notation. Activity calls are given as the source filed them. The calls are words filed in the database; no cut-off is given here.

Chain of Proteasome Macropain subunit (Homo sapiens) (P49721 whole entry): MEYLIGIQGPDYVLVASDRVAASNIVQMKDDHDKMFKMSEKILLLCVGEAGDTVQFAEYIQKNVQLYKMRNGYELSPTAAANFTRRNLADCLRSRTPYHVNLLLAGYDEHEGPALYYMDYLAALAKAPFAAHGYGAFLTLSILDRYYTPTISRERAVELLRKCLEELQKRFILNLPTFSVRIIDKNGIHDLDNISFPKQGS

The term inhibition denotes how much of the control response was suppressed. For `O=C1CNC(=S)N1c1cccc2ccccc12`, the inhibition was 38% in [1] and 47% in experiment [3]. For the same compound, the inhibition entry in experiment [2], in experiment [4] and in experiment [5] was “inactive” each time.
One may read the IC50 as the point on the concentration scale where inhibition reaches its midpoint. High values mean lower potency, low ones higher potency. By Ki is commonly meant the dissociation constant of the complex between target and ligand, obtained from inhibition or displacement. With `COc1cc(/C=C2\NC(=S)N(c3ccccc3)C2=O)ccc1O`, the inhibition in experiment [1] came to 32%; in experiment [3], 54%. Also, the 50% inhibitory concentration (IC50) in [6] was determined as 20.2 µM. In [7], the Ki worked out at 23.6 µM.
`CC(C)CC(NC(=O)[C@H](CC(C)C)NC(=O)OCc1ccccc1)C(=O)N[C@H](C=O)CC(C)C` (single isomer, unassigned) [MG-132] displayed an IC50 in experiment [6] of 14.4 µM.
Consider `O=C1CNC(=S)N1c1ccccc1`, for which the inhibition entry in experiment [1] and in [2] was “inactive” throughout. Moreover, the inhibition in experiment [3] was 32%; in experiment [4], 53%; in experiment [5], 47%.
With `COc1cccc(/C=C2\NC(=S)N(c3ccccc3)C2=O)c1`, the inhibition in experiment [1] is 36%; in experiment [2], 18%; in experiment [3] it was 52%. Also, it took 25.9 µM to reach half-maximal inhibition in experiment [6] (IC50). Besides, the inhibition constant (Ki) in experiment [7] turned out to be 17.9 µM.
In the case of `O=C1/C(=C/c2ccc(Oc3ccccc3)cc2)NC(=S)N1c1cccc2ccccc12`, the inhibition in experiment [1] is 57%; in experiment [4], 56%; in [5] it was 20%.
Regarding `O=C1/C(=C/c2ccc(Oc3ccccc3)cc2)NC(=S)N1c1ccccc1`, the inhibition was 5% in experiment [1], 53% in experiment [2], 58% in experiment [4] and 13% in experiment [5]. Besides, the inhibition entry in experiment [3] was “inactive”.
`COc1ccc(/C=C2\NC(=S)N(c3ccccc3)C2=O)cc1OC`: the inhibition in experiment [1] was determined as 29%; in [2], 50%; in [3] it was 58%. In addition, in [6], the half-maximal inhibitory concentration (IC50) was 36.7 µM. The inhibition result in experiment [8] is “Active”. This compound returned a Ki in experiment [7] of 13.6 µM. Moreover, in experiment [9], the Ratio turned out to be 7.
`CSc1ccc(/C=C2\NC(=S)N(c3ccccc3)C2=O)cc1`: the inhibition in experiment [3] came out at 59%; in experiment [4], 50%; in experiment [5], 28%.
As for `O=C1/C(=C/c2cccc(Oc3ccccc3)c2)NC(=S)N1c1ccccc1`, the inhibition result in [1] and in experiment [3] was “inactive” in each case. In addition, the values for the inhibition in [2], in experiment [4] and in [5] were 32%, 56% and 39%, respectively.
Regarding `COc1ccc(/C=C2\NC(=S)N(c3ccccc3)C2=O)cc1`, the inhibition in [1] is 35%; in [2], 29%; in [3] it was 56%; in [5], 45%. The compound further displayed an IC50 in experiment [6] of 19.4 µM.
Regarding `COc1ccc(/C=C2\NC(=S)N(c3ccccc3)C2=O)cc1O`, the inhibition in experiment [1] stood at 37%; in experiment [2], 45%; in [3] it was 28%; in experiment [5], 45%. The 50% inhibitory concentration (IC50) in experiment [6] is 40.7 µM. For the same compound, the Ratio in experiment [9] worked out at 20.

For the origin of these results see ChEMBL document CHEMBL4184119, “Identification of 2-thioxoimidazolidin-4-one derivatives as novel noncovalent proteasome and immunoproteasome inhibitors” (Bioorg Med Chem Lett, 2018).
